# Laboratory results reported in patent publication US20210069143A1, “LOW-ALCOHOL ANTIMICROBIAL COMPOSITION AND USE THEREOF” (Zurex Pharma, Inc., priority 2017, published 2021).
# Key:
# tested microorganisms = assay: Antimicrobial effect of components individually and together at various dilutions; type: cell-based; conditions: against most tested microorganisms
# Description: The antimicrobial effect of various components of the composition of Example 1 were tested individually and together at various dilutions. The results are presented in FIG. 1A-1I, wherein shaded boxes indicate no significant response (<3 log10 reduction).
# [1] = Gamma radiation (25-40 kGy) and 5-month storage stability of composition components in HDPE bottles; type: physicochemical; conditions: for Concentration % Change, T = 0 vs. T = 5 Months / % Change (Unexposed vs. Exposed) / % LC, Exposed / % LC, Unexposed / % IPA, Exposed / % IPA, Unexposed: HDPE bottle
# Description: An antimicrobial composition comprising isopropyl alcohol, citric acid, methyl paraben, propyl paraben, and methylene blue in HDPE bottles was exposed to 25-40 kGy radiation, and the amount of each component detected in the solution before and after radiation was tested. The testing was repeated after 5 months of storage. The results are presented in Tables 1 and 2, below, wherein “exposed” indicates the samples exposed to gamma radiation and “unexposed” indicates the samples that were not exposed to gamma radiation.
# [2] = T = 0, exposed to 25-40 kGy gamma radiation
# [3] = T = 0, not exposed to gamma radiation
# [4] = T = 5 months, exposed to 25-40 kGy gamma radiation
# [5] = T = 5 months, not exposed to gamma radiation
Structure (SMILES),"antimicrobial effect, alone (tested microorganisms; all tested concentrations)","change in amount of component upon gamma radiation ([1]; 25-40 kGy, HDPE bottles)","Concentration % Change, T = 0 vs. T = 5 Months ([1]; Exposed to gamma radiation) [%]",% Change (Unexposed vs. Exposed) ([1]; T = 0) [%],"% LC, Exposed [1, 2] [% LC]","% LC, Unexposed [1, 3] [% LC]",% Change (Unexposed vs. Exposed) ([1]; T = 5 months) [%],"% LC, Exposed [1, 4] [% LC]","% LC, Unexposed [1, 5] [% LC]","Concentration % Change, T = 0 vs. T = 5 Months ([1]; Unexposed) [%]","share of component in solution degraded by gamma radiation ([1]; 25-40 kGy, HDPE bottles, accompanied by a color change)","% IPA, Exposed [1, 2] [%]","% IPA, Unexposed [1, 3] [%]","% IPA, Exposed [1, 4] [%]","% IPA, Unexposed [1, 5] [%]","antimicrobial effect, alone (tested microorganisms; 25% v/v strength solution)"
O=C(O)CC(O)(CC(=O)O)C(=O)O [citrate],little to no effect,,,,,,,,,,,,,,,
"O=C(O)CC(O)(CC(=O)O)C(=O)O [Citric Acid, citric acid]",,negligible,−4.0,1.1,97.4,96.3,0.4,93.5,93.1,−3.3,,,,,,
"CN(C)c1ccc2nc3ccc(=[N+](C)C)cc-3sc2c1 [Methylene Blue, methylene blue]",little to no effect,,,−57.4,44.9,105.5,−49.4,47.3,93.4,,approximately 50%,,,,,
"CCCOC(=O)c1ccc(O)cc1 [Propylparaben, propyl-para-hydroxybenzoate]",,,0.4,0,74.9,74.9,−0.1,75.2,75.3,0.5,,,,,,
"CC(C)O [IPA, isopropyl alcohol]",,negligible,0.7,1.2,,,−0.1,,,1.6,,68.6,68.1,69.1,69.2,little to no effect
"COC(=O)c1ccc(O)cc1 [Methylparaben, methyl-para-hydroxybenzoate]",,,0.7,−0.4,74.5,74.8,−0.3,75.0,75.2,0.5,,,,,,
